Data taken from patent publication US8846849B2, “Tissue sealants from plasma derived proteins” (Ethicon, Inc., priority 2011, dated 2014).

Tests used:
[1] = Hydrolysis of NHS active esters in D2O monitored by NMR; assay type: physicochemical; conditions: in D2O at 25° C.; for Estimated Time for 95% Hydrolysis / Estimated Time for 10% Hydrolysis: NMR; for k = Constant in % Hydrolysis, y = k Exp(−mx) / m = Relative Rate in % Hydrolysis, y = k Exp(−mx): x = Time
Protocol: The relative reactivity of the active esters was determined by monitoring the rate of hydrolytic degradation in D2O at room temperature by NMR as shown in FIG. 4.
Various NHS active esters shown in FIG. 4 are the 4-Arm-TKHEED-Diglycolate-NHS (T-Dig-NHS or T-DG-N), the 4-Arm-Quadrol-Diglycolate-NHS (Q-Dig-NHS or Q-DG-N), the 4-Arm-PEG-Diglycolate-NHS (PEG-Dig-NHS or PEG-DG-N), the 4-Arm-TKHEED-Glutarate-NHS (T-Glut-NHS or T-Glut-N), and the 2-Arm-PEG-Diacid-NHS (PEG-NHS). It was observed that diglycolate-containing esters are the fastest hydrolyzing active esters, meaning to hydrolyze more than 95% in about 30 to 60 minutes irrespective of the core structure. […] These compounds appear to hydrolyze only about 10% or less in about 80 to 100 minutes.
Hydrolysis degradation parameters are summarized in Table 1 qualitatively from the chart in FIG. 4. It is observed that the Relative Rate, m, (in the exponential equation) for all the Diglycolate-NHS esters are within about 20% of each other. However, the rates are much faster than the others; for example, T-Dig-NHS (or T-DG-N) is 144 times faster than T-Glut-NHS, and 98 times faster than PEG-NHS. The degradation profiles of cross-linker A (T-DG-NHS), B (Q-Dig-NHS) and C (PEG-Dig-NHS) correspond to the instant invention, while the crosslinking agent D (T-Glut-NHS) and E (PEG-NHS) correspond to control groups.

[2] = target: T1, fibrinogen (BAC-2) solution (Homo sapiens, UniProt P02671+P02675+P02679); test: Qualitative rate of gelation of BAC-2 (fibrinogen) solution with active ester cross-linker; conditions: weight ratio cross-linker to fibrinogen 1:1, fibrinogen approx. 70 mg/ml, room temperature
T1 construct: Powdered BAC-2, a blood plasma derived product was obtained from Omrix BioPharmaceuticals; purchased Omrix BioPharmaceuticals; host or cells: blood plasma
T1 sequence (P02671 20-629 limits assumed): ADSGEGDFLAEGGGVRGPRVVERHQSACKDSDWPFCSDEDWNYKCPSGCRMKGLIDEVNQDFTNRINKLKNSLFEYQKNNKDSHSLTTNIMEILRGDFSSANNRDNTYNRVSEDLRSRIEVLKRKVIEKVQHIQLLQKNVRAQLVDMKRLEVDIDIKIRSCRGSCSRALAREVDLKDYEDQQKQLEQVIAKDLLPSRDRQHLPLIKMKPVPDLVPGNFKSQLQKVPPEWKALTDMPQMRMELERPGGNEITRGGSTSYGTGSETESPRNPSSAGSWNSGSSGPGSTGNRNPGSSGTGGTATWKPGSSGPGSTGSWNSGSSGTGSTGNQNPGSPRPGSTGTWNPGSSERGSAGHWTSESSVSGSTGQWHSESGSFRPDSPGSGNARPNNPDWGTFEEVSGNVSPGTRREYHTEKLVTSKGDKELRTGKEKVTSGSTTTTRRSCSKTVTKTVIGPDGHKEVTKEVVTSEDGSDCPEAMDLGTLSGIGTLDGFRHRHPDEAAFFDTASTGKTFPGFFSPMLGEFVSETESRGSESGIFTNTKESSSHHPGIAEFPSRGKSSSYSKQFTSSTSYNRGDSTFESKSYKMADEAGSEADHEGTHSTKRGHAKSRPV
T1 sequence (P02675 31-491): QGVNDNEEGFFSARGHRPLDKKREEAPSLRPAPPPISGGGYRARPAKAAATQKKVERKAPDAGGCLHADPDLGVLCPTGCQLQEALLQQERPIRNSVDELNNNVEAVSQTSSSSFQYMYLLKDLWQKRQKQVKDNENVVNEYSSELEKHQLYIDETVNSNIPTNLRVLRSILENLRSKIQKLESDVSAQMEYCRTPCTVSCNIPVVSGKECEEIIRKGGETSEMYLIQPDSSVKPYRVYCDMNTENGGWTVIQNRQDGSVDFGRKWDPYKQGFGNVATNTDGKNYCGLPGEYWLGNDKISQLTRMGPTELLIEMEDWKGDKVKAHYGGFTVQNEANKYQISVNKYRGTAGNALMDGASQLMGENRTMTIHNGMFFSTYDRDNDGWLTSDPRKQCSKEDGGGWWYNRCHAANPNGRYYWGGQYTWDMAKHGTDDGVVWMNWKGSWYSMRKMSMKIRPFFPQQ
T1 sequence (P02679 27-433 limits assumed): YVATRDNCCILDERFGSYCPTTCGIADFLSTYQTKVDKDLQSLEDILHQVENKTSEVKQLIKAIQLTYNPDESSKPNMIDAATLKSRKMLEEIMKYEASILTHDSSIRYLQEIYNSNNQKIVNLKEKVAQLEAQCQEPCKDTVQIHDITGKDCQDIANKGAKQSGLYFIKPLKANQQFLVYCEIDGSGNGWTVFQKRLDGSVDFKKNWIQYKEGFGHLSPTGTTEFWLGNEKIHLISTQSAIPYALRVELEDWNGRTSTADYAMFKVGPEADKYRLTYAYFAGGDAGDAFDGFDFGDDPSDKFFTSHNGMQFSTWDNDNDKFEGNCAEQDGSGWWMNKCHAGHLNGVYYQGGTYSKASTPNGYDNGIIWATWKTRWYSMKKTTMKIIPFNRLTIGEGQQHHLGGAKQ
Protocol: Sealants based on the inventive compositions were prepared by using an aqueous solution of BAC-2 (about 7% fibrinogen, or 70 mg/ml) where the crosslinking agent in the form of a powder was added at a selected composition and mixed well for 1 to 2 minutes up to gellation.
Crosslinking agents A, B, C correspond to the instant invention, while D and E correspond to control groups. The solid NHS ester, preferably in a powder form, was added to the BAC-2 solution at room temperature in a test tube at a weight ratio of 1 to 1 for active ester to fibrinogen, and mixed well. The time for gelation, defined qualitatively as the point when the BAC-2 solution in the test tube no longer flowed, was noted and recorded as shown in Table 2.
Sealants were prepared using an aqueous solution of fibrinogen (about 7% solution), where powder of either T-DG-N or PEG-DG-N was added at a selected composition based on the fibrinogen content. […] The in vitro rate of degradation of the hydrogel (or sealant) was determined in an enzymatic medium of plasmin at a concentration of 3.3 microgram/ml by determining the % clot remaining by gravimetric method after a given duration of exposure.

[3] = Water solubility of diglycolate-NHS esters; assay type: physicochemical
[4] = Hydrolytic degradation of sealant in de-ionized water at 37° C. by pH profiling; assay type: physicochemical; conditions: deionized water 37° C., constant pH 7.4
Protocol: Sealant with ester links undergoing hydrolytic degradation in PBS at 37° C. was evaluated by the % weight loss method. Sealant degradation in de-ionized (DI) water causes the pH level of the solution to […], which can be titrated by addition of a basic compound to maintain a constant pH of 7.4 at 37° C. until such time that no more basic compound was needed to maintain a neutral solution; the total time for titration was noted.
As the Diglycolate-NHS/BAC-2 system is a hydrogel of fibrinogen with ester based cross-links, its degradation was followed in the pH profiler of de-ionized water at 37° C., where a base was added to neutralize the acid formed upon ester hydrolysis with time, to maintain a constant neutral pH. Cross-linker weight % was varied based on fibrinogen content.

Estimated Time for 95% Hydrolysis [1]	Qualitative observation of Gelation [2]	water solubility [3]	Longevity of sealant, Avg. ([4]; NHS cross-linker 30 wt % based on fibrinogen)	Longevity of sealant, Avg. ([4]; NHS cross-linker 50 wt % based on fibrinogen)	Longevity of sealant, Avg. ([4]; NHS cross-linker 60 wt % based on fibrinogen)	Compound	k = Constant in % Hydrolysis, y = k Exp(−mx) [1]	m = Relative Rate in % Hydrolysis, y = k Exp(−mx) [1]	Estimated Time for 10% Hydrolysis [1]	hydrolysis rate, times faster than PEG-NHS [1]	hydrolysis rate, times faster than T-Glut-NHS [1]
60 min	1 to 2 min	about 25%				4-Arm-Quadrol-Diglycolate-NHS [Q-DG-N]	107	0.084			
	15 to 30 min					O=C(CCOCCOCCOCCOCCOCCOCCOCCOCCOCCC(=O)ON1C(=O)CCC1=O)ON1C(=O)CCC1=O [PEG-NHS, Bis-dPEG(9)-NHS ester, reference compound]	98	0.00106	80 min		
30 min	1 to 2 min	more than 85%	2.7 days	7.1 days	16.7 days	O=C(COCC(=O)ON1C(=O)CCC1=O)OCCN(CCOC(=O)COCC(=O)ON1C(=O)CCC1=O)CCN(CCOC(=O)COCC(=O)ON1C(=O)CCC1=O)CCOC(=O)COCC(=O)ON1C(=O)CCC1=O [T-DG-N, 4-Arm TKHEED-tetra Diglycolate-tetra-NHS ester]	62	0.104		98 times	144 times

Compound	Estimated Time for 95% Hydrolysis [1]	Qualitative observation of Gelation [2]	water solubility [3]	Longevity of sealant, Avg. ([4]; NHS cross-linker 30 wt % based on fibrinogen)	Longevity of sealant, Avg. ([4]; NHS cross-linker 50 wt % based on fibrinogen)	Longevity of sealant, Avg. ([4]; NHS cross-linker 60 wt % based on fibrinogen)	k = Constant in % Hydrolysis, y = k Exp(−mx) [1]	m = Relative Rate in % Hydrolysis, y = k Exp(−mx) [1]	Estimated Time for 10% Hydrolysis [1]	hydrolysis rate, times faster than PEG-NHS [1]	hydrolysis rate, times faster than T-Glut-NHS [1]
4-Arm-TKHEED-Glutarate-NHS [T-Glut-NHS, reference compound]		30 to 60 min					65	0.00072	100 min		
